# Laboratory results reported in paper PMC10784557, “In silico and in vitro prediction of new synthesized N-heterocyclic compounds as anti-SARS-CoV-2” (Scientific Reports, 2024).
# Columns and labels:
# [1] = test system: SARS-CoV-2 (hCoV-19/Egypt/NRC-03/2020); assay: Inhibitory concentration 50 (IC50) determination, virus-induced cytopathic effect, crystal violet; assay type: cell-based; conditions: Severe acute respiratory syndrome coronavirus 2, Vero C1008; Vero-E6 cells infected with hCoV-19/Egypt/NRC-03/2020, 72 h
# Experimental: In 96-well tissue culture plates, 2.4 × 10^4 Vero-E6 cells were distributed in each well and incubated overnight at a humidified 37 °C incubator under 5%CO2 condition. The cell monolayers were then washed once with 1 × PBS and subjected to virus adsorption (hCoV-19/Egypt/NRC-03/2020 (Accession Number on GSAID: EPI_ISL_430820)) for 1 h at room temperature (RT). More details were provided in Supplementary Information.
# 3.4.Inhibitory concentration 50 (IC50) determination
# In 96-well tissue culture plates, 2.4×10^4 Vero-E6 cells were distributed in each well and incubated overnight at a humidified 37°C incubator under 5%CO2 condition. The cell monolayers were then washed once with 1x PBS and subjected to virus adsorption (hCoV-19/Egypt/NRC-03/2020 (Accession Number on GSAID: EPI_ISL_430820)) for 1 h at room temperature (RT). The cell monolayers were further overlaid with 100μl of DMEM containing varying concentrations of the test compounds. Following incubation at 37°C in 5% CO2 incubator for 72 h, the cells were fixed with 100 μl of 4% paraformaldehyde for 20 min and stained with 0.1% crystal violet in distilled water for 15 min at RT. The crystal violet dye was then dissolved using 100 μl absolute methanol per well and the optical density of the color is measured at 570 nm using Anthos Zenyth 200rt plate reader (Anthos Labtec Instruments, Heerhugowaard, Netherlands). The IC50 of the compound is that required to reduce the virus -induced cytopathic effect (CPE) by 50%, relative to the virus control.
# [2] = in vitro; conditions: African green monkey
Structure (SMILES),IC50 [1] [µg/mL],CC50 at 24 h [2] [µg/mL]
"N=c1oc2ccccc2cc1-c1nnc(-c2cccnc2)o1 [Compound 5, 3-(5-(pyridin-3-yl)-1,3,4-oxadiazol-2-yl)-2H-chromen-2-imine]",55,312
"C(=Nc1nnc(-c2cccnc2)s1)c1c[nH]c2ccccc12 [Compound 11, 1-(1H-indol-3-yl)-N-(5-(pyridin-3-yl)-1,3,4-thiadiazol-2-yl)methanimine]",216,552
"Clc1nc2ccccc2cc1C=Nc1nnc(-c2cccnc2)s1 [Compound 12, 1-(2-chloroquinolin-3-yl)-N-(5-(pyridin-3-yl)-1,3,4-thiadiazol-2-yl)methanimine]",120,512
